Assay results: patent US9239329B2 (priority 2006, dated 2016)

Columns and labels:
A/Fukuoka/C29/85(H3N2) = format: binding, influenza virus; details: virus 100 HAU in PBS, 150 μl/min for 5 min, room temperature
A/Guizhou/54/89(H3N2) = format: binding, influenza virus; details: virus 100 HAU in PBS, 150 μl/min for 5 min, room temperature
[1] = format: binding; details: 2.0 μM protein in PBS-T, 150 μl/min for 5 min, room temperature; FIG. 3

Substance	interaction between sugar chain and influenza virus (SPR signal intensity) (A/Fukuoka/C29/85(H3N2))	interaction between sugar chain and influenza virus (SPR signal intensity) (A/Guizhou/54/89(H3N2))	interaction of protein with immobilized sugar chains (increase in brightness at spot positions, SPR) [1]
Neu5Acα2-6Galβ1-4Glc	strong interaction	limited interaction	–
bovine serum albumin	–	–	increase in brightness at none of the spot positions
wheat germ agglutinin	–	–	interacted with the sugar chains immobilized at the spot positions
concanavalin A	–	–	interacted with the sugar chains immobilized at the spot positions
